The nature of series [1]: CellTiter-Glo luminescent cell viability assay. Type of series: cell-based.
In series [2] the target is T1, L3MBTL1 (Homo sapiens, UniProt Q9Y468).
T1 sequence (Q9Y468 1-772 isoform Q9Y468-1): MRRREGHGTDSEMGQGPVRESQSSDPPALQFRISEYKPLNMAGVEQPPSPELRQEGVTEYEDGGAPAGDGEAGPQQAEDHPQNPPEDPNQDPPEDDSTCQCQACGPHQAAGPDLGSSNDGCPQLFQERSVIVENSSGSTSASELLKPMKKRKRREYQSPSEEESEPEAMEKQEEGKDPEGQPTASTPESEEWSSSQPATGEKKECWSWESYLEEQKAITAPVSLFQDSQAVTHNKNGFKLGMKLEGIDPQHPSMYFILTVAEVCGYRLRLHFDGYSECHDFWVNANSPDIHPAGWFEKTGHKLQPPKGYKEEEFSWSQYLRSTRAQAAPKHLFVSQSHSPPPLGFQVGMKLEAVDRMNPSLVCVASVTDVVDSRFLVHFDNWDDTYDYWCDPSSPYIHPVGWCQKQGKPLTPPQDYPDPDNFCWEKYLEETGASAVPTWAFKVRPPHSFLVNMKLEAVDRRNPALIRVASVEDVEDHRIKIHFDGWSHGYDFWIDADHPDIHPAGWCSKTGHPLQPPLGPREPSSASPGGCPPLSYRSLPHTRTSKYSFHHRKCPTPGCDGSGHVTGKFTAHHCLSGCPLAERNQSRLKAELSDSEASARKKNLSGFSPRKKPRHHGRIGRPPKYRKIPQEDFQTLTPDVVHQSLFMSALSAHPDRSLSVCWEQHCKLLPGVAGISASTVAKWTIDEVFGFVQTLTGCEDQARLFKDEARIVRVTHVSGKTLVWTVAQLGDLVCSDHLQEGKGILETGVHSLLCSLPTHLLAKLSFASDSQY
In words: Isothermal titration calorimetry. Type of series: binding. Conditions: in words.

In series [3] the target is T2, endogenous L3MBTL3 (Homo sapiens, UniProt Q96JM7).
T2 sequence (Q96JM7 1-780): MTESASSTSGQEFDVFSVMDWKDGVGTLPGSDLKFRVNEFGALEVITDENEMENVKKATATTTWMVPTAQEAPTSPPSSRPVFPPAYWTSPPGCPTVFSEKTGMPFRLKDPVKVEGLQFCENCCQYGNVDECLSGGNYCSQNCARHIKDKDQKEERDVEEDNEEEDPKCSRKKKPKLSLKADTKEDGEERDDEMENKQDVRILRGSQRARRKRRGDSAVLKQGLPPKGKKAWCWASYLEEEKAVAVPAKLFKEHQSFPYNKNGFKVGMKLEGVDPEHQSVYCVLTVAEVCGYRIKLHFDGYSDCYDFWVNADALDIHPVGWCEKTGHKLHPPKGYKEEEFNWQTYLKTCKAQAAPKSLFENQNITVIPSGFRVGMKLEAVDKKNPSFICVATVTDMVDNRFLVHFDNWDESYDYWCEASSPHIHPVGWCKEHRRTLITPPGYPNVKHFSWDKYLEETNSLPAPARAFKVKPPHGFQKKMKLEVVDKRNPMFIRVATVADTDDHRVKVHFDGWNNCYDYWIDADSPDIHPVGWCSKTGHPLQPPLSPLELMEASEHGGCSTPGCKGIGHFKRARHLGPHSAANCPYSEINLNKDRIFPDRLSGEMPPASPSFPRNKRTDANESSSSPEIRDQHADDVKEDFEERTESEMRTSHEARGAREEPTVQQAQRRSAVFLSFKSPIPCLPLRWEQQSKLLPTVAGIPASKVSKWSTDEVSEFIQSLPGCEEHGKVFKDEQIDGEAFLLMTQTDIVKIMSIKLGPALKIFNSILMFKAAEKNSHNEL
Put plainly: Biotin-1 pull-down. It is filed as binding. The settings on record: G-401 cell lysates, Western analysis.

Series [4] addresses T3, GFP-FLMBT (GFP fusion of full-length L3MBTL3) (Homo sapiens, UniProt Q96JM7).
T3 sequence (Q96JM7 1-780): T2 sequence (Q96JM7 1-780)
Put plainly: Displacement of mero76-1 from GFP-FLMBT in HEK293 cells. Type of series: cell-based.

Series [5] has as its system GFP fusion protein containing the three MBT domains of L3MBTL3 (GFP-3MBT). Conditions: read-out: EC50, effect on subnuclear localization of GFP-3MBT; cells; cited from earlier work.
The subject of series [6] is L3MBTL1 L361F.
The target in series [7] is T4, L3MBTL3 (Homo sapiens, UniProt Q96JM7).
T4 sequence (Q96JM7 1-780): T2 sequence (Q96JM7 1-780)
Put plainly: AlphaScreen competition assay. The settings on record: in words.

pEC50: −log10 of the molar value.

For `CCN1Cc2ccc(NC(=O)c3ccc(C(=O)N4CCC(C5CCCN5)CC4)cc3)cc2C1` (centres unmarked) [Compound 2], the “cytotoxicity, no observable level up to” value in series [1] was > 100 µM.
As for `O=C(c1ccc(C(=O)N2CCC(N3CCCC3)CC2)c(NCc2ccccc2)c1)N1CCC(N2CCCC2)CC1` [Compound 49], in series [2], the “affinity for L3MBTL1 by follow-up ITC” value is “micromolar affinity”.
In the case of `O=C(c1ccc(C(=O)N2CCC(N3CCCCC3)CC2)cc1)N1CCC(N2CCCCC2)CC1` [Compound 37], the “competition with biotin-1 for binding to endogenous L3MBTL3” value in series [3] was “failed to compete for binding to endogenous L3MBTL3”.
`O=C(c1ccc(C(=O)N2CCC(N3CCCC3)CC2)cc1)N1CCC(N2CCCC2)CC1` [Compound 5]: the “cytotoxicity, no observable level up to” value in series [1] is > 100 µM.
As to `O=C(c1ccc(C(=O)N2CCC(N3CCCC3)CC2)c(Nc2ccccc2)c1)N1CCC(N2CCCC2)CC1` [Compound 1], the “cytotoxicity, no observable level up to” value in series [1] was > 100 µM. Further, the “displacement of mero76-1 from GFP-L3MBTL3” value in series [4] (1 equivalent relative to mero76-1) was “displace mero76-1 from GFP-L3MBTL3”. Also, the “displacement of mero76-1 from GFP-FLMBT” value in series [4] (1 or 5 equivalents relative to mero76-1 (both concentrations)) is given as “largely displaces mero76-1 from GFP-FLMBT”. Besides, the “competition with biotin-1 for binding to endogenous L3MBTL3” value in series [3] was “competed off with soluble 1”. The pEC50 in series [5] was ~6.30.
For the molecule `O=C(c1cccc(Br)c1)N1CCC(N2CCCC2)CC1` [Compound 57], in series [6], the “change in affinity for L3MBTL1 L361F relative to wildtype L3MBTL1 by ITC” value is recorded as ≤ 2 fold. The “binding to L3MBTL3 versus L3MBTL1” value in series [7] is given as “equally well”.

These data come from article PMC3846386 (Journal of medicinal chemistry, 2013).
